Laboratory results as given in patent US9434711B2 (Janssen Pharmaceutica, NV, priority 2007, dated 2016).
pIC50: −log10 of the molar value.

Molecular target: canine TRPM8 (Canis lupus familiaris, UniProt Q1A7N1)
Assay: In Vitro Canine TRPM8 Functional Assay (Ca2+ fluorescence, icilin activation)
Assay type: cell-based
Settings: for pIC50: HEK293 cells stably expressing canine TRPM8, icilin activation, eight-point dose-response, read-out: IC50; for inhibition at 0.2 µM: compound at 0.2 μM, read-out: % Inh @ 0.2; for inhibition at 0.2 µM / inhibition at 0.5 µM: canine TRPM8, icilin activation; for inhibition at 0.5 µM: compound at 0.5 μM, read-out: % Inh @ 0.5
Summary of the method: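 Eight-point dose-response curves in quadruplicate gave EC50 or IC50 values from a Ca2+-sensitive dye assay in HEK293 cells stably carrying canine TRPM8. Icilin, dosed near its 80% maximal level, followed a 5 min compound exposure.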

Chain of canine TRPM8 (Q1A7N1 1-1104): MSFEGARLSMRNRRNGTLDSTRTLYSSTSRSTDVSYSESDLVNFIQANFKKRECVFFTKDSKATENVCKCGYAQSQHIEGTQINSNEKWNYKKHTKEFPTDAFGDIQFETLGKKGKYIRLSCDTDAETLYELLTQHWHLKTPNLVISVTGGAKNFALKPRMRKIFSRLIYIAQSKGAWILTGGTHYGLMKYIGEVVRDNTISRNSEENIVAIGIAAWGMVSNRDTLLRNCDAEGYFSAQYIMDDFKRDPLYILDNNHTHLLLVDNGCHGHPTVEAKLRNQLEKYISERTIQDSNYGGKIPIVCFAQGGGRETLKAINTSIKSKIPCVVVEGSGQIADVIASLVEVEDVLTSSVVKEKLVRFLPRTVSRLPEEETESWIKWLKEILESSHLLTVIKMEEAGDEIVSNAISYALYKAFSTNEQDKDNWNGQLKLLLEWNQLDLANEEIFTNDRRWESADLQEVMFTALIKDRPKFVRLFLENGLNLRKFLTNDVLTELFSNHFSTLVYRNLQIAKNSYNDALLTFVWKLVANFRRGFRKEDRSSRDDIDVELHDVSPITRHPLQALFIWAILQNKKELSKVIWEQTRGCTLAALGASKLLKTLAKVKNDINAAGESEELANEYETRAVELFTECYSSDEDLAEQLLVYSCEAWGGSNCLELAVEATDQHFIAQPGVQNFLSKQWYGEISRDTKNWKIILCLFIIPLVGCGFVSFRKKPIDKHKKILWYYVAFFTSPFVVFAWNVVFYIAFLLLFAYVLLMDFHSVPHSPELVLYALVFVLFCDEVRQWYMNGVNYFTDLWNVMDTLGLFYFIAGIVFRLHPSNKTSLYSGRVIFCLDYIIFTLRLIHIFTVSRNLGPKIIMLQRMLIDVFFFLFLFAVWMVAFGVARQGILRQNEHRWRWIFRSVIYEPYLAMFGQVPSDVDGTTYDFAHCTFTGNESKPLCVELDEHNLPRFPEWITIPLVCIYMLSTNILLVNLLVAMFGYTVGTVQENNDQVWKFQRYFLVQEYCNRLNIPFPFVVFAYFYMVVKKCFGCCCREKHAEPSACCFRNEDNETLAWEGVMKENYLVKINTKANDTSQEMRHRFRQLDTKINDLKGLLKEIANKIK

Row | SMILES | pIC50 | inhibition at 0.2 µM | inhibition at 0.5 µM
1 | COCCN(c1sc2ccccc2c1C)S(=O)(=O)c1ccccc1 [Compound 99, N-(2-Methoxy-ethyl)-N-(3-methyl-benzo[b]thiophen-2-yl)-benzenesulfonamide] | 7.74 | 99% | –
2 | Cc1c(N(CCOC(C)(C)C)S(=O)(=O)c2ccccc2)sc2ccccc12 [Compound 100, N-(2-tert-Butoxy-ethyl)-N-(3-methyl-benzo[b]thiophen-2-yl)-benzenesulfonamide] | 8.17 | 103% | –
3 | COC(=O)CN(c1sc2ccccc2c1C)S(=O)(=O)c1ccccc1 [Compound 101, N-(3-Methyl-benzo[b]thiophen-2-yl)-N-(carbomethoxy-methyl)-benzenesulfonamide] | 7.52 | 101% | –
4 | Cc1c(N(CC(F)F)S(=O)(=O)c2ccccc2)sc2ccccc12 [Compound 102, N-(2,2-Difluoro-ethyl)-N-(3-methyl-benzo[b]thiophen-2-yl)-benzenesulfonamide] | 7.40 | 98% | –
5 | Cc1c(N(CC2CCCN2C(=O)OC(C)(C)C)S(=O)(=O)c2ccccc2)sc2ccccc12 (centres unmarked) [Compound 103, N-(3-Methyl-benzo[b]thiophen-2-yl)-N-{[1-(carbo-tert-butoxy)pyrrolidin-2-yl]-methyl}-benzenesulfonamide] | 7.04 | 80% | –
6 | Cc1c(N(CCc2ccccc2)S(=O)(=O)c2ccccc2)sc2ccccc12 [Compound 104, N-(3-Methyl-benzo[b]thiophen-2-yl)-N-(phenethyl)-benzenesulfonamide] | 8.05 | 98% | –
7 | CCS(=O)(=O)N(CCOC)c1sc2ccccc2c1C [Compound 105, N-(2-Methoxy-ethyl)-N-(3-methyl-benzo[b]thiophen-2-yl)-ethanesulfonamide] | – | 20% | –
8 | CCS(=O)(=O)N(CCC(F)(F)F)c1sc2ccccc2c1C [Compound 106, N-(3-Methyl-benzo[b]thiophen-2-yl)-N-(3,3,3-trifluoro-propyl)-ethanesulfonamide] | 7.72 | 93% | –
9 | CC#CCCN(c1sc2ccccc2c1C)S(=O)(=O)CC [Compound 107, N-(3-Methyl-benzo[b]thiophen-2-yl)-N-(pent-3-ynyl)-ethanesulfonamide] | – | 72% | –
10 | CCS(=O)(=O)N(CCSC)c1sc2ccccc2c1C [Compound 108, N-(3-Methyl-benzo[b]thiophen-2-yl)-N-(2-methylsulfanyl-ethyl)-ethanesulfonamide] | – | 71% | –
11 | CCS(=O)(=O)N(C[C@@H]1CCC(=O)N1)c1sc2ccccc2c1C [Compound 109, N-(3-Methyl-benzo[b]thiophen-2-yl)-N-(5-oxo-(S)-pyrrolidin-2-ylmethyl)-ethanesulfonamide] | – | 14% | –
12 | CCS(=O)(=O)N(CCOC(C)(C)C)c1sc2ccccc2c1C [Compound 110, N-(2-tert-Butoxy-ethyl)-N-(3-methyl-benzo[b]thiophen-2-yl)-ethanesulfonamide] | 8.14 | 97% | –
13 | CCS(=O)(=O)N(CC(F)F)c1sc2ccccc2c1C [Compound 111, N-(2,2-Difluoro-ethyl)-N-(3-methyl-benzo[b]thiophen-2-yl)-ethanesulfonamide] | 7.04 | 68% | –
14 | CCS(=O)(=O)N(CC1CC1)c1sc2ccccc2c1C [Compound 112, N-(Cyclopropylmethyl)-N-(3-methyl-benzo[b]thiophen-2-yl)-ethanesulfonamide] | 7.52 | 95% | –
15 | CCS(=O)(=O)N(CCN1CCOCC1)c1sc2ccccc2c1C [Compound 113, N-(3-Methyl-benzo[b]thiophen-2-yl)-N-(2-morpholin-4-yl-ethyl)-ethanesulfonamide] | – | 19% | –
16 | CCS(=O)(=O)N(CC1CCCN1C(=O)OC(C)(C)C)c1sc2ccccc2c1C (centres unmarked) [Compound 114, N-(3-Methyl-benzo[b]thiophen-2-yl)-N-{[1-(carbo-tert-butoxy)pyrrolidin-2-yl]-methyl}-ethanesulfonamide] | 7.29 | 93% | –
17 | O=S(=O)(c1ccccc1)N(CCc1ccccc1)c1cc2ccccc2s1 [Compound 115, N-(Benzo[b]thiophen-2-yl)-N-(phenethyl)-benzenesulfonamide] | 7.10 | – | 95%
18 | C=CCN(c1cc2ccccc2s1)S(=O)(=O)c1ccccc1 [Compound 116, N-(Allyl)-N-(benzo[b]thiophen-2-yl)-benzenesulfonamide] | 6.99 | – | 98%
19 | CCCCN(c1cc2ccccc2s1)S(=O)(=O)c1ccccc1 [Compound 117, N-(Benzo[b]thiophen-2-yl)-N-(butyl)-benzenesulfonamide] | – | – | 99%

Row | SMILES | pIC50 | inhibition at 0.2 µM | inhibition at 0.5 µM
20 | O=S(=O)(c1ccccc1)N(CC1CCCCC1)c1cc2ccccc2s1 [Compound 118, N-(Benzo[b]thiophen-2-yl)-N-(cyclohexylmethyl)-benzenesulfonamide] | 7.32 | – | 100%
21 | O=S(=O)(c1ccccc1)N(c1cc2ccccc2s1)C1CCCCC1 [Compound 119, N-(Benzo[b]thiophen-2-yl)-N-(cyclohexyl)-benzenesulfonamide] | 6.87 | – | 93%
22 | CSCCN(c1cc2ccccc2s1)S(=O)(=O)c1ccccc1 [Compound 120, N-(Benzo[b]thiophen-2-yl)-N-(2-methylsulfanyl-ethyl)-benzenesulfonamide] | 6.81 | 75% | –
23 | CCCCN(c1sc2ccccc2c1C(C)=O)S(=O)(=O)CC [Compound 121, N-(3-Acetyl-benzo[b]thiophen-2-yl)-N-(butyl)-ethanesulfonamide] | 7.46 | 86% | –
24 | CCS(=O)(=O)N(CC1CC1)c1sc2ccccc2c1C(C)=O [Compound 122, N-(3-Acetyl-benzo[b]thiophen-2-yl)-N-(cyclopropylmethyl)-ethanesulfonamide] | – | 23% | –
25 | CCS(=O)(=O)N(CCOC(C)(C)C)c1sc2ccccc2c1C(C)=O [Compound 123, N-(3-Acetyl-benzo[b]thiophen-2-yl)-N-(2-tert-butoxy-ethyl)-ethanesulfonamide] | – | 60% | –
26 | CCS(=O)(=O)N(CCN1CCOCC1)c1sc2ccccc2c1C(C)=O [Compound 124, N-(3-Acetyl-benzo[b]thiophen-2-yl)-N-(2-morpholin-4-yl-ethyl)-ethanesulfonamide] | – | 14% | –
27 | Cc1c(N(Cc2ccc(F)c(F)c2)S(=O)(=O)Cc2ccccc2)sc2ccccc12 [Compound 126, N-(3,4-Difluoro-benzyl)-N-(3-methyl-benzo[b]thiophen-2-yl)-phenyl-methanesulfonamide] | – | – | 45%
28 | Cc1c(N(Cc2ccc(F)c(F)c2)S(=O)(=O)c2cccc(F)c2)sc2ccccc12 [Compound 127, N-(3,4-Difluoro-benzyl)-N-(3-methyl-benzo[b]thiophen-2-yl)-3-fluoro-benzenesulfonamide] | 8.10 | – | 98%
29 | Cc1c(N(Cc2ccc(F)c(F)c2)S(=O)(=O)c2ccccc2F)sc2ccccc12 [Compound 128, N-(3,4-Difluoro-benzyl)-N-(3-methyl-benzo[b]thiophen-2-yl)-2-fluoro-benzenesulfonamide] | 8.05 | – | 99%
30 | Cc1c(N(Cc2ccc(F)c(F)c2)S(=O)(=O)c2cccs2)sc2ccccc12 [Compound 129, N-(3,4-Difluoro-benzyl)-N-(3-methyl-benzo[b]thiophen-2-yl)-thiene-2-ylsulfonamide] | 8.55 | – | 101%
31 | Cn1cnc(S(=O)(=O)N(Cc2ccc(F)c(F)c2)c2cc3ccccc3s2)c1 [Compound 130, N-(Benzo[b]thiophen-2-yl)-N-(3,4-difluoro-benzyl)-1-methyl-1H-imidazole-4-sulfonamide] | 6.98 | – | 98%
32 | O=S(=O)(c1cccc(F)c1)N(Cc1ccc(F)c(F)c1)c1cc2ccccc2s1 [Compound 131, N-(Benzo[b]thiophen-2-yl)-N-(3,4-difluoro-benzyl)-3-fluoro-benzenesulfonamide] | 7.32 | – | 95%
33 | O=S(=O)(c1ccc(C(F)(F)F)cc1)N(Cc1ccc(F)c(F)c1)c1cc2ccccc2s1 [Compound 132, N-(Benzo[b]thiophen-2-yl)-N-(3,4-difluoro-benzyl)-4-trifluoromethyl-benzenesulfonamide] | – | – | 56%
34 | CS(=O)(=O)CS(=O)(=O)N(Cc1ccc(F)c(F)c1)c1cc2ccccc2s1 [Compound 133, N-(Benzo[b]thiophen-2-yl)-N-(3,4-difluoro-benzyl)-C-methanesulfonyl-methanesulfonamide] | 7.22 | – | 97%
35 | COc1ccc(S(=O)(=O)N(Cc2ccc(F)c(C(F)(F)F)c2)c2cc3ccccc3s2)cc1 [Compound 134, N-(Benzo[b]thiophen-2-yl)-N-(4-fluoro-3-trifluoromethyl-benzyl)-4-methoxy-benzenesulfonamide] | – | 30% | –
36 | COC(=O)c1ccc(S(=O)(=O)N(Cc2ccc(F)c(C(F)(F)F)c2)c2cc3ccccc3s2)cc1 [Compound 135, N-(Benzo[b]thiophen-2-yl)-N-(4-fluoro-3-trifluoromethyl-benzyl)-4-carbomethoxy-benzenesulfonamide] | – | 18% | –
37 | COC(=O)c1cccc(S(=O)(=O)N(Cc2ccc(F)c(C(F)(F)F)c2)c2cc3ccccc3s2)c1 [Compound 136, N-(Benzo[b]thiophen-2-yl)-N-(4-fluoro-3-trifluoromethyl-benzyl)-3-carbomethoxy-benzenesulfonamide] | – | 40% | –
38 | COC(=O)c1cccc(S(=O)(=O)N(Cc2ccc(F)c(C(F)(F)F)c2)c2sc3ccccc3c2C)c1 [Compound 137, N-(3-Methyl-benzo[b]thiophen-2-yl)-N-(4-fluoro-3-trifluoromethyl-benzyl)-3-carbomethoxy-benzenesulfonamide] | 8.10 | 98% | –
